Test results as given in US3956274A, “New compound 6'-deoxy-'-substituted or unsubstituted amino-lividomycins and the production thereof” (Zaidan Hojin Biseibutsu Kagaku Kenkyu Kai, priority 1973, dated 1976).
≈ marks a conversion by molar mass, not a printed value. Where two headings read alike, the source gives them in different places.

What was measured:
[1] = tested on: Escherichia coli K-12 JR 66/W 677; test: MIC, standard serial dilution method; format: cell-based; settings: Escherichia coli, 18 h, read-out: Minimal inhibitory concentration
Method: (§1) The minimum inhibitory concentrations (mcg/ml) of 6'-amino-6'-deoxylividomycin B, 6'-deoxy-6'-methylaminolividomycin B and 6'-deoxy-6'-(2-hydroxyethylamino) lividomycin B against various microorganisms were determined according to a standard serial dilution method using nutrient agar incubation medium at 37°C, the estimation being effected after 18 hours incubation except for Mycobacterium smegmalis ATCC 607, in which the estimation being effected after 48 hours incubation. The minimum inhibitory concentrations (mcg/ml) of neomycin and lividomycin B were also determined in the same manner they also for comparison.
(§2) In the above table, the mark * denotes the strain is a drug-resistant
(§3) strain of patient-origin.

[2] = tested on: Escherichia coli K-12 LA 290 R 55; test: MIC, standard serial dilution method; format: cell-based; settings: Escherichia coli, 18 h, read-out: Minimal inhibitory concentration
Method: as §1, §2, §3

[3] = tested on: Pseudomonas aeruginosa GN 315; test: MIC, standard serial dilution method; format: cell-based; settings: Pseudomonas aeruginosa, read-out: Minimal inhibitory concentration
Method: as §1, §2, §3

[4] = tested on: Escherichia coli K-12 ML 1629; test: MIC, standard serial dilution method; format: cell-based; settings: Escherichia coli, K12ML1629; E. coli K-12 ML 1629, drug-resistant strain of patient-origin; nutrient agar, 37°C, 18 hours; read-out: Minimal inhibitory concentration
Method: as §1, §2, §3

Escherichia coli NIHJ = test: MIC, standard serial dilution method; format: cell-based; settings: Escherichia coli, read-out: Minimal inhibitory concentration
Method: as §1

[5] = tested on: Klebsiella pneumoniae type 22 No. 3038; test: MIC, standard serial dilution method; format: cell-based; settings: Klebsiella pneumoniae, read-out: Minimal inhibitory concentration
Method: as §1

[6] = tested on: Staphylococcus aureus FDA 209 P; test: MIC, standard serial dilution method; format: cell-based; settings: Staphylococcus aureus, FDA209; S. aureus FDA 209 P; nutrient agar, 37°C, 18 hours; read-out: Minimal inhibitory concentration
Method: as §1

[7] = tested on: Escherichia coli K-12 R-5; test: MIC, standard serial dilution method; format: cell-based; settings: Escherichia coli, K12R5; E. coli K-12 R-5; nutrient agar, 37°C, 18 hours; read-out: Minimal inhibitory concentration
Method: as §1

[8] = tested on: Bacillus subtilis NRRL B-558; test: MIC, standard serial dilution method; format: cell-based; settings: Bacillus subtilis, NRRLB558; B. subtilis NRRL B-558; nutrient agar, 37°C, 18 hours; read-out: Minimal inhibitory concentration
Method: as §1

[9] = tested on: Klebsiella pneumoniae PCI 602; test: MIC, standard serial dilution method; format: cell-based; settings: Klebsiella pneumoniae, PCI602; K. pneumoniae PCI 602; nutrient agar, 37°C, 18 hours; read-out: Minimal inhibitory concentration
Method: as §1

[10] = tested on: Escherichia coli K-12 LA 290 R 64; test: MIC, standard serial dilution method; format: cell-based; settings: Escherichia coli; E. coli K-12 LA 290 R 64; nutrient agar, 37°C, 18 hours; read-out: Minimal inhibitory concentration
Method: as §1

[11] = tested on: Escherichia coli K-12 ML 1630; test: MIC, standard serial dilution method; format: cell-based; settings: Escherichia coli, K12ML1630; E. coli K-12 ML 1630; nutrient agar, 37°C, 18 hours; read-out: Minimal inhibitory concentration
Method: as §1

[12] = tested on: Pseudomonas aeruginosa TI-13-1; test: MIC, standard serial dilution method; format: cell-based; settings: Pseudomonas aeruginosa, TI131; P. aeruginosa TI-13-1; nutrient agar, 37°C, 18 hours; read-out: Minimal inhibitory concentration
Method: as §1

[13] = tested on: Pseudomonas aeruginosa No.12; test: MIC, standard serial dilution method; format: cell-based; settings: Pseudomonas aeruginosa; P. aeruginosa No.12; nutrient agar, 37°C, 18 hours; read-out: Minimal inhibitory concentration
Method: as §1

Escherichia coli K-12 = test: MIC, standard serial dilution method; format: cell-based; settings: Escherichia coli, read-out: Minimal inhibitory concentration
Method: as §1

[14] = tested on: Pseudomonas aeruginosa A 3; test: MIC, standard serial dilution method; format: cell-based; settings: Pseudomonas aeruginosa, A3, 18 h, read-out: Minimal inhibitory concentration
Method: as §1

[15] = tested on: Escherichia coli K-12 J 5 R 11-2; test: MIC, standard serial dilution method; format: cell-based; settings: Escherichia coli, K12J5R112; E. coli K-12 J 5 R 11-2; nutrient agar, 37°C, 18 hours; read-out: Minimal inhibitory concentration
Method: as §1

Sarcina lutea PCI 1001 = test: MIC, standard serial dilution method; format: cell-based; settings: Micrococcus luteus, PCI1001, nutrient agar, 37°C, 18 hours, read-out: Minimal inhibitory concentration
Method: as §1

Proteus rettgeri GN 466 = test: MIC, standard serial dilution method; format: cell-based; settings: Providencia rettgeri, read-out: Minimal inhibitory concentration
Method: as §1

Salmonella typhosa T-63 = test: MIC, standard serial dilution method; format: cell-based; settings: Salmonella enterica, TYPHOSA, 18 h, read-out: Minimal inhibitory concentration
Method: as §1

[16] = tested on: Escherichia coli K-12 ML 1410; test: MIC, standard serial dilution method; format: cell-based; settings: Escherichia coli, read-out: Minimal inhibitory concentration
Method: as §1

[17] = tested on: Escherichia coli K-12 W 677; test: MIC, standard serial dilution method; format: cell-based; settings: Escherichia coli, read-out: Minimal inhibitory concentration
Method: as §1

[18] = tested on: Escherichia coli K-12 ML 1410 R 81; test: MIC, standard serial dilution method; format: cell-based; settings: Escherichia coli, 18 h, read-out: Minimal inhibitory concentration
Method: as §1

[19] = tested on: Escherichia coli K-12 LA 290 R 56; test: MIC, standard serial dilution method; format: cell-based; settings: Escherichia coli, 18 h, read-out: Minimal inhibitory concentration
Method: as §1

Proteus rettgeri GN 311 = test: MIC, standard serial dilution method; format: cell-based; settings: Providencia rettgeri, GN311, nutrient agar, 37°C, 18 hours, read-out: Minimal inhibitory concentration
Method: as §1

[20] = tested on: Mycobacterium smegmatis ATCC 607; test: MIC, standard serial dilution method; format: cell-based; settings: Mycolicibacterium smegmatis, ATCC607, nutrient agar, 37°C, 48 hours, read-out: Minimal inhibitory concentration
Method: as §1

[21] = tested on: Pseudomonas aeruginosa 99; test: MIC, standard serial dilution method; format: cell-based; settings: Pseudomonas aeruginosa; P. aeruginosa 99; nutrient agar, 37°C, 18 hours; read-out: Minimal inhibitory concentration
Method: as §1

[22] = tested on: kanamycin-resistant strains; settings: in words; cited from earlier work
[23] = tested on: strains producing the phosphotransferase; settings: in words; cited from earlier work
[24] = K12, E. coli K-12, nutrient agar, 37°C, 18 hours
[25] = GN315, P. aeruginosa GN 315, drug-resistant strain of patient-origin, nutrient agar, 37°C, 18 hours

Compound | MIC [1] [µg/mL] | MIC [2] [µg/mL] | MIC [4] [µg/mL] | MIC [6] [µg/mL] | MIC [7] [µg/mL] | MIC [8] [µg/mL] | MIC [9] [µg/mL] | MIC [10] [µg/mL] | MIC [11] [µg/mL] | MIC [12] [µg/mL] | MIC [13] [µg/mL] | MIC [14] [µg/mL] | MIC [15] [µg/mL] | MIC (Sarcina lutea PCI 1001) [µg/mL] | MIC (Salmonella typhosa T-63) [µg/mL] | MIC [18] [µg/mL] | MIC [19] [µg/mL] | MIC (Proteus rettgeri GN 311) [µg/mL] | MIC [20] [µg/mL] | MIC [21] [µg/mL] | other results
CNC[C@H]1O[C@H](O[C@H]2[C@H](O[C@@H]3O[C@H](CO)[C@@H](O[C@H]4O[C@@H](CN)[C@@H](O)[C@H](O)[C@H]4N)[C@H]3O)[C@@H](O)[C@H](N)C[C@@H]2N)[C@H](N)C[C@@H]1O [MALVB, 6'-deoxy-6'-methylaminolividomycin B] | 3.12 (≈ 5.09 µM) | 1.56 (≈ 2.55 µM) | > 100 | < 0.2 | 1.56 (≈ 2.55 µM) | < 0.2 | 0.78 (≈ 1.27 µM) | 0.78 (≈ 1.27 µM) | > 100 | > 100 | 0.78 (≈ 1.27 µM) | 3.12 (≈ 5.09 µM) | 100 (≈ 163 µM) | 6.25 (≈ 10.2 µM) | 0.78 (≈ 1.27 µM) | > 100 | 1.56 (≈ 2.55 µM) | 25 (≈ 40.8 µM) | < 0.2 | 25 (≈ 40.8 µM) | MIC ([3]; GN315, 18 h): 3.12 µg/mL (≈ 5.09 µM); MIC (Escherichia coli NIHJ; 18 h): 3.12 µg/mL (≈ 5.09 µM); MIC ([5]; TYPE22NO.3038, 18 h): 1.56 µg/mL (≈ 2.55 µM); MIC (Escherichia coli K-12; [24]): 0.78 µg/mL (≈ 1.27 µM); MIC (Proteus rettgeri GN 466; GN466, Proteus rettgeri GN 466, nutrient agar, 37°C, 18 hours): 12.5 µg/mL (≈ 20.4 µM); MIC ([16]; K12ML1410, 18 h): 3.12 µg/mL (≈ 5.09 µM); MIC ([17]; K12W677, E. coli K-12 W 677, nutrient agar, 37°C, 18 hours): 0.78 µg/mL (≈ 1.27 µM)
NC[C@@H]1O[C@H](O[C@H]2[C@@H](O)[C@H](O[C@@H]3[C@@H](O)[C@H](N)C[C@H](N)[C@H]3O[C@H]3O[C@H](CNCCO)[C@@H](O)C[C@H]3N)O[C@@H]2CO)[C@H](N)[C@@H](O)[C@@H]1O [HALVB, 6'-deoxy-6'-(2-hydroxyethylamino) lividomycin B] | 6.25 (≈ 9.72 µM) | 1.56 (≈ 2.43 µM) | > 100 | 0.39 (≈ 0.607 µM) | 1.56 (≈ 2.43 µM) | < 0.2 | 0.78 (≈ 1.21 µM) | 1.56 (≈ 2.43 µM) | > 100 | > 100 | 0.78 (≈ 1.21 µM) | 6.25 (≈ 9.72 µM) | > 100 | 25 (≈ 38.9 µM) | 1.56 (≈ 2.43 µM) | > 100 | 0.78 (≈ 1.21 µM) | 50 (≈ 77.8 µM) | < 0.2 | 25 (≈ 38.9 µM) | MIC [3, 25]: 12.5 µg/mL (≈ 19.4 µM); MIC (Escherichia coli NIHJ; E. coli NIHJ, nutrient agar, 37°C, 18 hours): 3.12 µg/mL (≈ 4.85 µM); MIC ([5]; TYPE22NO.3038, K. pneumoniae type 22 No. 3038, nutrient agar, 37°C, 18 hours): 3.12 µg/mL (≈ 4.85 µM); MIC (Escherichia coli K-12; K12, 18 h): 1.56 µg/mL (≈ 2.43 µM); MIC (Proteus rettgeri GN 466; GN466, 18 h): 6.25 µg/mL (≈ 9.72 µM); MIC ([16]; K12ML1410, E. coli K-12 ML 1410, nutrient agar, 37°C, 18 hours): 3.12 µg/mL (≈ 4.85 µM); MIC ([17]; K12W677, 18 h): 1.56 µg/mL (≈ 2.43 µM)
NC[C@@H]1O[C@H](O[C@H]2[C@@H](O)[C@H](O[C@@H]3[C@@H](O)[C@H](N)C[C@H](N)[C@H]3O[C@H]3O[C@H](CO)[C@@H](O)C[C@H]3N)O[C@@H]2CO)[C@H](N)[C@@H](O)[C@@H]1O [LVB, lividomycin B, reference compound] | 6.25 (≈ 10.4 µM) | 3.12 (≈ 5.2 µM) | > 100 | 1.56 (≈ 2.6 µM) | 1.56 (≈ 2.6 µM) | < 0.2 | 1.56 (≈ 2.6 µM) | 3.12 (≈ 5.2 µM) | > 100 | > 100 | 25 (≈ 41.7 µM) | 6.25 (≈ 10.4 µM) | > 100 | 1.56 (≈ 2.6 µM) | 0.78 (≈ 1.3 µM) | > 100 | 3.12 (≈ 5.2 µM) | 1.56 (≈ 2.6 µM) | 0.39 (≈ 0.65 µM) | 100 (≈ 167 µM) | MIC [3, 25]: 50 µg/mL (≈ 83.4 µM); activity against kanamycin-resistant strains [22]: active against the kanamycin-resistant bacteria; MIC (Escherichia coli NIHJ; 18 h): 3.12 µg/mL (≈ 5.2 µM); MIC ([5]; TYPE22NO.3038, 18 h): 6.25 µg/mL (≈ 10.4 µM); MIC (Escherichia coli K-12; [24]): 1.56 µg/mL (≈ 2.6 µM); MIC (Proteus rettgeri GN 466; GN466, 18 h): 3.12 µg/mL (≈ 5.2 µM); MIC ([16]; K12ML1410, 18 h): 6.25 µg/mL (≈ 10.4 µM); MIC ([17]; K12W677, 18 h): 3.12 µg/mL (≈ 5.2 µM)
NC[C@@H]1CC[C@@H](N)[C@@H](O[C@H]2[C@H](O[C@@H]3O[C@H](CO)[C@@H](O)[C@H]3O)[C@@H](O)[C@H](N)C[C@@H]2N)O1 [3', 4'-dideoxyribostamycin] |  |  |  |  |  |  |  |  |  |  |  |  |  |  |  |  |  |  |  |  | inactivation by some strains producing the phosphotransferase [23]: can be inactivated by some strains producing the phosphotransferase
